Results on six compounds are retold here after ChEMBL document CHEMBL1155552, “New hydroxypyrimidinone-containing sulfonamides as carbonic anhydrase inhibitors also acting as MMP inhibitors” (Bioorg Med Chem Lett, 2010).

Structures are written as SMILES.

The target of assay [1] is Carbonic anhydrase 2 (Homo sapiens, UniProt P00918). Briefly: Inhibition of human carbonic anhydrase 2.
The target of assay [2] is Carbonic anhydrase 9 (Homo sapiens, UniProt Q16790).
Description: Inhibition of human carbonic anhydrase 9
The target of assay [3] is Matrix metalloproteinase-9 (Homo sapiens) (UniProt P14780). Briefly: Inhibition of MMP9 at 3 uM.
Matrix metalloproteinase-9 (Homo sapiens), sequence (P14780 whole entry): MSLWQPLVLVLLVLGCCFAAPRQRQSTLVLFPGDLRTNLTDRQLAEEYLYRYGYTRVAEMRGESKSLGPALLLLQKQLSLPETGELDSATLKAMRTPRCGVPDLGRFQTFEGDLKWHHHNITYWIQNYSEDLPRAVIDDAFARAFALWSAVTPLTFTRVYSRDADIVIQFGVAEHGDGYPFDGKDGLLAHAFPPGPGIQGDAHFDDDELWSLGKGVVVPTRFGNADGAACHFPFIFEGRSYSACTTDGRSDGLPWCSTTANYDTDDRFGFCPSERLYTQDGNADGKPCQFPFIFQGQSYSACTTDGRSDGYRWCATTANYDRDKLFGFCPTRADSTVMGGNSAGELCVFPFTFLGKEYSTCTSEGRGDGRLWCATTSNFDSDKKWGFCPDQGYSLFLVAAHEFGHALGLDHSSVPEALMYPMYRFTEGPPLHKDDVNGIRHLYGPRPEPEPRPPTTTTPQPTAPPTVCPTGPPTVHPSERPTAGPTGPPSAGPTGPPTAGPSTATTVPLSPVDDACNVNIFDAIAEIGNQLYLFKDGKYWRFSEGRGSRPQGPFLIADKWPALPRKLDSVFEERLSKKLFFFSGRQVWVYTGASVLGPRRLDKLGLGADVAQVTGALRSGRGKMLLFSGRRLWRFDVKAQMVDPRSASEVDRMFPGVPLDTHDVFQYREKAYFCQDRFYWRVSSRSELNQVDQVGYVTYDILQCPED
The target of assay [4] is Matrix metalloproteinase-14 (Homo sapiens) (UniProt P50281). Briefly: Inhibition of MMP14 at 3 uM.
Assay [5] concerns the target T1, Matrilysin (Homo sapiens) (UniProt P09237).
T1 sequence (whole entry): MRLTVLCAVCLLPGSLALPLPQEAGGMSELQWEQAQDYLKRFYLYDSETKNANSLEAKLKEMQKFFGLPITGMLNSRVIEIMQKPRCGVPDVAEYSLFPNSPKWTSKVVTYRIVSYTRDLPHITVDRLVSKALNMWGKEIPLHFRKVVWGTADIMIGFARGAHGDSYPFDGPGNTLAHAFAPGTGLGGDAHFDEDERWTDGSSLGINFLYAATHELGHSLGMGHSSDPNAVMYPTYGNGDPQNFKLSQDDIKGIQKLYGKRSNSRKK
Briefly: Inhibition of MMP7 at 3 uM.

The target of assay [6] is 72 kDa type IV collagenase (Homo sapiens) (UniProt P08253). Description: Inhibition of MMP2 at 100 uM.
72 kDa type IV collagenase (Homo sapiens), sequence (P08253 110-660 limits assumed): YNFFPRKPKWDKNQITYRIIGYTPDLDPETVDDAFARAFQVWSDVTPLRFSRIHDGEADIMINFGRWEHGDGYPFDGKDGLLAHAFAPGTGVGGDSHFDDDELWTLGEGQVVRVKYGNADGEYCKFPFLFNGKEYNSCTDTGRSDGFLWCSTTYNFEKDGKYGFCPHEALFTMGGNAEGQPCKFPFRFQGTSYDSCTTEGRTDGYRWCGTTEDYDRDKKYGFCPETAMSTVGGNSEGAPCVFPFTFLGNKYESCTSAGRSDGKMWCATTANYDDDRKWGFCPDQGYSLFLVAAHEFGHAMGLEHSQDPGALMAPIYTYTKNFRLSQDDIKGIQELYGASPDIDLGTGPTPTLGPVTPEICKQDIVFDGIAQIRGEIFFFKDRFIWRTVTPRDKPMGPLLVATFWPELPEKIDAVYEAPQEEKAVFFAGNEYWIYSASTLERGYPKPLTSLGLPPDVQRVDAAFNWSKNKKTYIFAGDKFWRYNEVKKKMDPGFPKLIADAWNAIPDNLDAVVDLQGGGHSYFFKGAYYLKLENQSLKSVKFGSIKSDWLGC
Assay [7] addresses Matrix metalloproteinase-14 (Homo sapiens) (UniProt P50281). Briefly: Inhibition of MMP14 at 100 uM.
In assay [8] the target is Matrix metalloproteinase-9 (Homo sapiens) (UniProt P14780). Description: Inhibition of MMP9 at 100 uM.
For assay [9], the target named is 72 kDa type IV collagenase (Homo sapiens) (UniProt P08253). Briefly: Inhibition of MMP2 at 3 uM.
The target in assay [10] is T1, Matrilysin (Homo sapiens). Briefly: Inhibition of MMP7 at 100 uM.
Assay [11] addresses 72 kDa type IV collagenase (Homo sapiens) (UniProt P08253). Description: Inhibition of MMP2 at 30 nM.
Assay [12] addresses Matrix metalloproteinase-9 (Homo sapiens) (UniProt P14780). Briefly: Inhibition of MMP9 at 30 nM.
The target in assay [13] is 72 kDa type IV collagenase (Homo sapiens) (UniProt P08253). Description: Inhibition of MMP2 at 300 uM.
For assay [14] the target is unchanged. Briefly: Inhibition of MMP2 at 30 uM.
Assay [15] has as its target Matrix metalloproteinase-9 (Homo sapiens) (UniProt P14780). Briefly: Inhibition of MMP9 at 1 uM.
For assay [16] the target is unchanged. Briefly: Inhibition of MMP9 at 10 uM.

Usually Ki stands for a measure of affinity in units of concentration, obtained from inhibition or displacement. Low readings indicate tighter binding, high ones weaker binding. Turning to `COC(=O)CCCCCNc1ccn(O)c(=O)n1`, the figures for the Ki in assay [1] and in assay [2] were 270000 nM and above 1000 nM, respectively.

The inhibition is the change of the read-out against control, counted positive when it falls. A lower inhibition goes with a weak effect. In the case of `NCCCCCNc1ccn(O)c(=O)n1`, the inhibition in assay [3] came out at 3%; in assay [4] it was 3%; in assay [5], 1%; in assay [6], 24%; in assay [7], 42%; in assay [8] it was 23%. The inhibition in [9] amounted to 9%; in assay [10], 30%.

In the case of `NS(=O)(=O)c1ccc(CCNC(=O)CCCCCNc2ccn(O)c(=O)n2)cc1`, the Ki in assay [2] stood at 4.1 nM.

As to `NCCCCNc1ccn(O)c(=O)n1`, the inhibition in [3] is 6%; in assay [11], 30%; in assay [5], 9%; in [7], 28%; in assay [8], 26%; in [9] it was 22%. Besides, the inhibition in assay [10] turned out to be 29%; in assay [12] it was 1%; in assay [13], 88%.

Take `NS(=O)(=O)c1ccc(NC(=O)CCCNc2ccn(O)c(=O)n2)cc1`: affinity in assay [2] was put at a Ki of 3.4 nM.

Take `NS(=O)(=O)c1ccc(CCNc2ccn(O)c(=O)n2)cc1`: the inhibition in assay [14] was 19.6%; in assay [6], 86%; in assay [7], 48%; in assay [8] it was 67%; in [9], 7.4%; in [15] it was 6%. Further, the inhibition in [10] was found to be 38%; in assay [16], 9%.
